This passage reports Km results from PMC3969243, “A PIP5 Kinase Essential for Efficient Chemotactic Signaling” (Current Biology, 2014).

In experiment [1] the target is T1, PikI (Dictyostelium discoideum, UniProt Q55GN6).
T1 construct: gene DDB_G0267588
As to conditions: product PI(4,5)P2.

Experiment [2] deals with T2, PikI (Dictyostelium discoideum, UniProt Q55GN6, T262A).
T2 construct: gene DDB_G0267588
Particulars: product PI(4,5)P2.

Experiment [3] concerns the target T3, PikI (Dictyostelium discoideum, UniProt Q55GN6, T262E).
T3 construct: gene DDB_G0267588
As to conditions: product PI(4,5)P2; phosphomimetic.

T2 sequence (Q55GN6 whole entry T262A): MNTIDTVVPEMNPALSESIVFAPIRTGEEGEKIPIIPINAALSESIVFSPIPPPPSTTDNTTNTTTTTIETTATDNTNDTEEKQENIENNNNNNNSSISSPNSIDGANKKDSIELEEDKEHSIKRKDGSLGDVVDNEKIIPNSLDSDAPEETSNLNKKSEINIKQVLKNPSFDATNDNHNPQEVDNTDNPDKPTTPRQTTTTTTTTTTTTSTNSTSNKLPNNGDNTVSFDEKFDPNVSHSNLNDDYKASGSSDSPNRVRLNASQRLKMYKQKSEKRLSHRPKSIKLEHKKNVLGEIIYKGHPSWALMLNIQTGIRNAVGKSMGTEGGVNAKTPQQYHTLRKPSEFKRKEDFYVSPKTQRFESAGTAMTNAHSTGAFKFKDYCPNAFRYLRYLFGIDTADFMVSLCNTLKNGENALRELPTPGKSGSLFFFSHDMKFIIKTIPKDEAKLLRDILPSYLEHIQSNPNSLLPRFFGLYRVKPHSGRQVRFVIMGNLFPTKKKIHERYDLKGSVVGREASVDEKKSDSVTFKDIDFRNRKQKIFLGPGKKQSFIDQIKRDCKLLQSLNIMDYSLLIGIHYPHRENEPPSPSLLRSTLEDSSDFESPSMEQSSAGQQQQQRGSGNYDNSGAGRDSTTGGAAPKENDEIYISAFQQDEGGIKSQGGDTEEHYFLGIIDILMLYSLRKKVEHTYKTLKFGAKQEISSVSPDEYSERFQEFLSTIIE
T1 sequence (Q55GN6 whole entry): as the sequence (Q55GN6 whole entry T262A) above, with A262T counted along it
T3 sequence (Q55GN6 whole entry T262E): as the sequence (Q55GN6 whole entry T262A) above, with A262E counted along it

What is called Km is the concentration of substrate that gives half-maximal velocity. As to PI(4)P, the results for the Michaelis-Menten constant (Km) at PikI [1], at PikI [2] and on PikI [3] were 5.74 ± 3.18 µM, 4.6 ± 2.87 µM and 6.39 ± 3.69 µM, respectively.
